Assay results as given in US12552826B2, “PRMT5 inhibitors” (Merck Sharp & Dohme LLC, priority 2018, dated 2026).
pEC50: −log10 of the molar value.

What follows are molecules tested against T1, PRMT5 (Homo sapiens, UniProt O14744) (assay: PRMT5 Cell Target Engagement (TE) Assay). Details: MCF-7 cells, 3 days treatment, nuclear SDMA by high content imaging.
T1 construct: endogenous in cells; host or cells: MCF-7
Assay type: cell-based
Excerpt: The PRMT5 TE assay is a biomarker assay for identifying compounds that inhibit symmetric dimethylation of arginine (SDMA) of PRMT5 substrates. The following substrates have been reported for PRMT5: Histone H2A and H4 R3, Histone H3 R2, Histone H3 R8, spliceosome Sm proteins, ribosomal protein RPS10, p53, FEN1, nucleoplasmin, nucleolin, EGFR and EBNA. The assay will focus on detecting symmetrically dimethylated nuclear proteins using high content imaging technology. Detection of the expression of symmetrically dimethylated nuclear proteins is through a mixture of primary rabbit monoclonal antibodies to SDMA (CST 13222), which in turn recognized by an Alexafluor 488 dye-conjugated anti-rabbit IgG secondary antibody. The IN Cell Analyzer 2200 or Opera-Phenix measures nuclear Alexafluor 488 fluorescent dye intensity that is directly related to the level of expression of symmetrically dimethylated nuclear proteins at the single cell level. Nuclear AF488 dye intensities are compared to the mean value for DMSO treated cells (MIN) to report percent of inhibition for each compound-treated well.
In this assay, the cell potency (EC50) of each compound was determined from a ten point (1:3 serial dilution; top compound concentration of 10000 nM) titration curve using the following outlined procedure. Each well of a BD falcon collagen coated black/clear bottom 384-well plate was seeded with 4000 MCF-7 cells in 30 μl media and allowed to attach for 5 hours. Media is ATCC-formulated Eagle's Minimum Essential Medium, Catalog No. 30-2003. The following components were added to the base medium: 0.01 mg/mL human recombinant insulin; fetal bovine serum to a final concentration of 10%. Additional 30 μl of media containing 2× compounds were added to each well. Cells were treated for 3 days in 37° C. CO2 incubator. On day 3, cells were fixed with Cytofix, permeabilized with 0.4% Triton-X-100/Cytofix, and washed with D-PBS without Ca/Mg. Cells were blocked with Licor Odessey blocking reagent for 1 hour at room temperature, followed by incubation with anti-SDMA (1:1000) antibody at 4° C. overnight. 1° antibody was removed, followed by three washings with DPBS without Ca/Mg and 0.05% Tween20. Hoechst (5 μg/mL), Cell Mask deep stain (1:2000) and Alexa488-conjugated goat anti-rabbit IgG (2 μg/mL) was added for 1 hour at room temperature. A final washing step (three washes) was performed before sealing plate for imaging on In Cell Analyzer 2200 or Opera-Phenix. Images from analyzer were uploaded to Columbus for image analysis. IC50 values were determined by 4 parameters robust fit of percent fluorescence units vs. (Log10) compound concentrations.

T1 sequence (O14744 whole entry): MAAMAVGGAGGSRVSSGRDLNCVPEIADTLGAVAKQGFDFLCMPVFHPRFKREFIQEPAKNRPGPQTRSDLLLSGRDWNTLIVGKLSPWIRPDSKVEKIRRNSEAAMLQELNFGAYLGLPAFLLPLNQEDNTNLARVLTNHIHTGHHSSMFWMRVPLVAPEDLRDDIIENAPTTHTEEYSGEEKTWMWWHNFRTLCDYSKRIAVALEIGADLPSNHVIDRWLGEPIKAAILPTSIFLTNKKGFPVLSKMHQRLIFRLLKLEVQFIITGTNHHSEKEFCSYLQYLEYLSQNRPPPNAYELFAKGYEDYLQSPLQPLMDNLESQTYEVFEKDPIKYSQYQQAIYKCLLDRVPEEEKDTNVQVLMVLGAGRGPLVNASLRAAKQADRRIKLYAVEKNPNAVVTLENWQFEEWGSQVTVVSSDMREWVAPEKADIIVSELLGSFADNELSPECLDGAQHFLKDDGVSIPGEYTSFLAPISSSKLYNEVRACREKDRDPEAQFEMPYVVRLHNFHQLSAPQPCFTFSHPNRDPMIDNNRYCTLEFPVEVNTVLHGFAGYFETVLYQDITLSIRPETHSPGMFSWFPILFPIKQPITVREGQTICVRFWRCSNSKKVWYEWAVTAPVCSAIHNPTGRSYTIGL
T1 sequence (Q9BQA1 whole entry partner): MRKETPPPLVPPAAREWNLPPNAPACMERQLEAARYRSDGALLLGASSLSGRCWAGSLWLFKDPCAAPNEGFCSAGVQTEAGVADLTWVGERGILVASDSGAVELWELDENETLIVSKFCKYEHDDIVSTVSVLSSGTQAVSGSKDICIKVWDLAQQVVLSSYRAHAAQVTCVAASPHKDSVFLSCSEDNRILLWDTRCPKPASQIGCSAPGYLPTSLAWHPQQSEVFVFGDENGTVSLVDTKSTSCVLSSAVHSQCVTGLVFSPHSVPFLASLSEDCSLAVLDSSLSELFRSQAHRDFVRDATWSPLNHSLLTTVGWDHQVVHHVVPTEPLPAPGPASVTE

| SMILES | pEC50 |
| --- | --- |
| Cc1ccccc1[C@H](O)[C@H]1O[C@@H](n2ccc3c(N)ncnc32)[C@H](O)[C@]1(C)O [Example 41, 7-[(5S)-3-C-methyl-5-C-(2-methylphenyl)-beta-D-ribofuranosyl]-7H-pyrrolo[2,3-d]pyrimidin-4-amine] | < 5.00 |
| C[C@]1(O)[C@@H](O)[C@H](n2ccc3c(N)ncnc32)O[C@@H]1[C@](C)(O)c1cc(F)cc(C(F)F)c1 [Example 66, 7-{6-deoxy-5-C-[3-(difluoromethyl)-5-fluorophenyl]-3-C-methyl-alpha-L-talofuranosyl}-7H-pyrrolo[2,3-d]pyrimidin-4-amine] | 8.40 |
| C[C@@]1(O)[C@@H]([C@@H](O)c2ccc(Cl)cc2F)O[C@@H](n2ccc3c(N)ncnc32)[C@@H]1O [Example 43, 7-[(5S)-5-C-(4-chloro-2-fluorophenyl)-3-C-methyl-beta-D-ribofuranosyl]-7H-pyrrolo[2,3-d]pyrimidin-4-amine] | < 5.00 |
| C[C@@]1(O)[C@@H]([C@@H](O)c2cc(Cl)cc(C(F)(F)F)c2)O[C@@H](n2ccc3c(N)ncnc32)[C@@H]1O [Example 61, 7-{(5S)-5-C-[3-chloro-5-(trifluoromethyl)phenyl]-3-C-methyl-beta-D-ribofuranosyl}-7H-pyrrolo[2,3-d]pyrimidin-4-amine] | < 5.00 |
| C[C@@]1(O)[C@@H]([C@H](O)c2cccc(Cl)c2)O[C@@H](n2ccc3c(N)ncnc32)[C@@H]1O [Example 16, 7-[(5R)-5-C-(3-chlorophenyl)-3-C-methyl-beta-D-ribofuranosyl]-7H-pyrrolo[2,3-d]pyrimidin-4-amine] | 7.10 |
| C[C@]1(O)[C@@H](O)[C@H](n2ccc3c(N)ncnc32)O[C@@H]1[C@](C)(O)c1ccc(F)c(F)c1 [Example 3, (2R,3S,4R,5R)-5-(4-amino-7H-pyrrolo[2,3-d]pyrimidin-7-yl)-2-((R)-1-(3,4-difluorophenyl)-1-hydroxyethyl)-3-methyltetrahydrofuran-3,4-diol] | 6.84 |
| C[C@@]1(O)[C@@H]([C@H](O)c2cc(F)cc(C(F)F)c2)O[C@@H](n2ccc3c(N)ncnc32)[C@@H]1O [Example 4, (2R,3S,4R,5R)-5-(4-amino-7H-pyrrolo[2,3-d]pyrimidin-7-yl)-2-((R)-(3-(difluoromethyl)-5-fluorophenyl)(hydroxy)methyl)-3-methyltetrahydrofuran-3,4-diol] | 7.80 |
| C[C@@]1(O)[C@@H]([C@H](O)c2cc(F)cc(Cl)c2)O[C@@H](n2ccc3c(N)ncnc32)[C@@H]1O [Example 26, 7-[(5R)-5-C-(3-chloro-5-fluorophenyl)-3-C-methyl-beta-D-ribofuranosyl]-7H-pyrrolo[2,3-d]pyrimidin-4-amine] | 7.47 |
| C[C@@]1(O)[C@@H]([C@H](O)c2cc(C(F)F)c(F)c3c2CNCC3)O[C@@H](n2ccc3c(N)ncnc32)[C@@H]1O [Example 8, (2R,3S,4R,5R)-5-(4-amino-7H-pyrrolo[2,3-d]pyrimidin-7-yl)-2-((R)-(6-(difluoromethyl)-5-fluoro-1,2,3,4-tetrahydroisoquinolin-8-yl)(hydroxy)methyl)-3-methyltetrahydrofuran-3,4-diol] | 7.19 |
| C[C@@]1(O)[C@@H]([C@@H](O)c2cc(F)cc(F)c2F)O[C@@H](n2ccc3c(N)ncnc32)[C@@H]1O [Example 53, 7-[(5S)-3-C-methyl-5-C-(2,3,5-trifluorophenyl)-beta-D-ribofuranosyl]-7H-pyrrolo[2,3-d]pyrimidin-4-amine] | 5.05 |
| C[C@@]1(O)[C@@H]([C@H](O)c2ccc(F)cc2Cl)O[C@@H](n2ccc3c(N)ncnc32)[C@@H]1O [Example 48, 7-[(5R)-5-C-(2-chloro-4-fluorophenyl)-3-C-methyl-beta-D-ribofuranosyl]-7H-pyrrolo[2,3-d]pyrimidin-4-amine] | < 5.00 |
| C[C@]1(O)[C@@H](O)[C@H](n2ccc3c(N)ncnc32)O[C@@H]1[C@](C)(O)c1cccc(C(F)F)c1 [Example 62, 7-{6-deoxy-5-C-[3-(difluoromethyl)phenyl]-3-C-methyl-alpha-L-talofuranosyl}-7H-pyrrolo[2,3-d]pyrimidin-4-amine] | 8.03 |
| C[C@@]1(O)[C@@H]([C@@H](O)c2cccc(Cl)c2F)O[C@@H](n2ccc3c(N)ncnc32)[C@@H]1O [Example 47, 7-[(5S)-5-C-(3-chloro-2-fluorophenyl)-3-C-methyl-beta-D-ribofuranosyl]-7H-pyrrolo[2,3-d]pyrimidin-4-amine] | < 5.00 |
| C[C@@]1(O)[C@@H]([C@H](O)c2ccc(Cl)cc2F)O[C@@H](n2ccc3c(N)ncnc32)[C@@H]1O [Example 42, 7-[(5R)-5-C-(4-chloro-2-fluorophenyl)-3-C-methyl-beta-D-ribofuranosyl]-7H-pyrrolo[2,3-d]pyrimidin-4-amine] | 5.74 |

Now from value to molecule:

| pEC50 | SMILES |
| --- | --- |
| 5.88 | C[C@]1(O)[C@@H](O)[C@H](n2ccc3c(N)ncnc32)O[C@@H]1[C@](C)(O)c1cncc(C(F)F)c1 [Example 77, 7-{6-deoxy-5-C-[5-(difluoromethyl)pyridin-3-yl]-3-C-methyl-alpha-L-talofuranosyl}-7H-pyrrolo[2,3-d]pyrimidin-4-amine] |
| < 5.00 | C[C@@]1(O)[C@@H]([C@@H](O)c2ccnc(C(F)F)c2)O[C@@H](n2ccc3c(N)ncnc32)[C@@H]1O [Example 79, 7-{(5S)-5-C-[2-(difluoromethyl)pyridin-4-yl]-3-C-methyl-beta-D-ribofuranosyl}-7H-pyrrolo[2,3-d]pyrimidin-4-amine] |
| 5.92 | C[C@]1(O)[C@@H](O)[C@H](n2ccc3c(N)ncnc32)O[C@@H]1[C@](C)(O)c1cc(C(F)F)ccn1 [Example 76, 7-{6-deoxy-5-C-[4-(difluoromethyl)pyridin-2-yl]-3-C-methyl-alpha-L-talofuranosyl}-7H-pyrrolo[2,3-d]pyrimidin-4-amine] |
| < 5.00 | C[C@@]1(O)[C@@H]([C@@H](O)c2cc(C(F)F)ccn2)O[C@@H](n2ccc3c(N)ncnc32)[C@@H]1O [Example 73, 7-{(5S)-5-C-[4-(difluoromethyl)pyridin-2-yl]-3-C-methyl-beta-D-ribofuranosyl}-7H-pyrrolo[2,3-d]pyrimidin-4-amine] |
| 6.29 | C[C@]1(O)[C@@H](O)[C@H](n2ccc3c(N)ncnc32)O[C@@H]1[C@@](C)(O)c1cccc2c1CNCC2 [Example 69, 7-[6-deoxy-3-C-methyl-5-C-(1,2,3,4-tetrahydroisoquinolin-8-yl)-beta-D-allofuranosyl]-7H-pyrrolo[2,3-d]pyrimidin-4-amine] |
| 7.33 | Cc1ncnc2c1ccn2[C@@H]1O[C@H]([C@](C)(O)c2cccc3c2CNCC3)[C@@](C)(O)[C@H]1O [Example 88, (2R,3S,4R,5R)-2-((R)-1-hydroxy-1-(1,2,3,4-tetrahydroisoquinolin-8-yl)ethyl)-3-methyl-5-(4-methyl-7H-pyrrolo[2,3-d]pyrimidin-7-yl)tetrahydrofuran-3,4-diol] |
| 6.44 | C[C@]1(O)[C@@H](O)[C@H](n2ccc3c(N)ncnc32)O[C@@H]1[C@](C)(O)c1ccnc(C(F)F)c1 [Example 80, 7-{6-deoxy-5-C-[2-(difluoromethyl)pyridin-4-yl]-3-C-methyl-alpha-L-talofuranosyl}-7H-pyrrolo[2,3-d]pyrimidin-4-amine] |
| 8.13 | Cc1ncnc2c1ccn2[C@@H]1O[C@H]([C@@H](O)c2cc(C(F)F)c(F)c3c2CNCC3)[C@@](C)(O)[C@H]1O (single isomer, unassigned) [Example 90] |
